Tests used:
[1] = system: GPNMB surface expression on A375 melanoma cells; experiment: Flow cytometry of GPNMB surface expression, A375 cells; format: cell-based, human; conditions: for GPNMB surface expression, flow cytometry GeoMean: A375, CR011 (anti-GPNMB) primary antibody
Procedure: Cells were seeded in 6-well tissue culture dishes at a subconfluent density and allowed to attach overnight. The following day, cells were treated as indicated in the figures/legends, harvested with versene (Invitrogen), washed with PBS and incubated with primary antibody (10 μg/mL) diluted in staining buffer (PBS pH 7.4, 4% FBS, 0.1% sodium azide) for 30 minutes on ice. […] After incubation with primary antibody, samples were washed with staining buffer and then incubated with secondary antibody (PE-conjugated anti-human antibody; 1:100) for 30 minutes on ice. After incubation, samples were washed with staining buffer and examined on a Becton Dickinson FACSCalibur flow cytometer (BD Immunocytometry Systems, San Jose, Calif.). Data analysis was performed with Becton Dickinson Cell Quest software and the geometric mean fluorescence intensity (GeoMean) was determined for each sample.
For the data shown in Table 37, flow cytometry was performed on intact, non-permeabilized cells using the indicated primary monoclonal antibodies. […] The results are reported as GeoMeans. […] For the data shown in the bottom left panel of Table 37, SKMEL2 (melanoma) cells were treated with MEKi (U0126; 10 uM), imatinib (20 uM), p38i (p38 MAPKi SB202190; 50 uM), NH4Cl (ammonium chloride; 20 mM) or CLQ (chloroquine; 20 uM) for 48 hours prior to analysis. For the data shown in the bottom right panel of Table 37, WM2664 (melanoma) cells were treated with MON (monensin) or MMPi (GM6001) for 48 hours prior to analysis.

[2] = system: MART-1, TYRP-2, TYRP-1, PMEL17, MAGEA1, MCSP, MTf, MCAM; conditions: melanoma cell lines, U0126 20 μM, 48 hours (FIG. 5)
Procedure: Cells were seeded in 6-well tissue culture dishes at a subconfluent density and allowed to attach overnight. For harvesting cell lysates, media was removed, cells were briefly washed with serum-free media and then 1× Tris-glycine SDS sample buffer (Invitrogen, Carlsbad, Calif.) supplemented with 10 mM dithiothreitol (Sigma) was added directly to the wells. Cell lysates were then collected and boiled for 10 minutes. For preparing conditioned media, drug treatments were performed in a minimum volume of growth media (1.5 mL/well). Following 48 hours of incubation, conditioned media was collected, briefly microfuged, mixed with an equal volume of 2× Tris-glycine SDS sample buffer (Invitrogen, Carlsbad, Calif.) supplemented with 20 mM dithiothreitol (Sigma) and boiled for 10 minutes. For cell lysates, samples were quantified and an equal quantity of protein/lane was resolved on 4-20% gradient polyacrylamide gels (Invitrogen) and then transferred to nitrocellulose filters (Invitrogen). The volume of conditioned media loaded/lane was adjusted based on the protein concentration determined in the respective cell lysates. […]

N#CC(=C(/N)Sc1ccccc1N)/C(C#N)=C(\N)Sc1ccccc1N [Mab U0126]
GPNMB surface expression, flow cytometry GeoMean ([1]; MEKi (U0126) 5 um, 12 h): 14.7
GPNMB surface expression, flow cytometry GeoMean ([1]; MEKi (U0126) 5 um, 24 h): 16.4
GPNMB surface expression, flow cytometry GeoMean ([1]; MEKi (U0126) 5 um, 48 h): 52.4
GPNMB surface expression, flow cytometry GeoMean ([1]; MEKi (U0126) 20 um, 12 h): 18.3
GPNMB surface expression, flow cytometry GeoMean ([1]; MEKi (U0126) 20 um, 24 h): 22.4
GPNMB surface expression, flow cytometry GeoMean ([1]; MEKi (U0126) 20 um, 48 h): 84.0
GPNMB surface expression ([1]; A375 melanoma, 12, 24 or 48 hours (Table 37, top)): induced GPNMB surface expression
expression of MART-1, TYRP-2, TYRP-1, PMEL17 [2]: induced by MEK inhibition in some cell lines
expression of other targets (MAGEA1, MCSP) [2]: either were not effected or even decreased
